According to US20230295109A1, “PYRIDINONE COMPOUNDS FOR THE TREATMENT OF AUTOIMMUNE DISEASE” (F. Hoffmann-La Roche AG, priority 2020, published 2023):

Assay: Parallel Artificial Membrane Permeability Assay (PAMPA)
Format: in vitro ADME
Method: PAMPA (Parallel Artificial Membrane Permeability Assay) is a first-line permeability screen for drug candidates. This assay mimics the transcellular absorption conditions using an artificial phospholipid membrane and generates a permeability value that can be used for compound ranking and optimization as well as input parameters for in silico models to predict intestinal absorption.
Permeation experiments are carried out in hydrophobic PVDF 96-well microtiter filter plates (MultiScreen Filter Plate, Millipore, #MAIPN4550). Each well is coated with PVDF membrane, which is prepared with 5 µL Dodecane (Sigma, D221104) that contains 1% lecithin (Sigma, P3556-1G).
The typical PAMPA experimental protocol is as follows: The donor plate is placed on a Teflon acceptor plate that has been pre-filled with 150 µL of 100 mM PBS buffer (2.6 g KH2PO4 and 18.5 g K2HPO4.3H2O are dissolved in about 1000 mL of ultra-pure water and mixed thoroughly. The pH is adjusted to 7.40 ± 0.05, using either 1 M sodium hydroxide or 1 M hydrochloric acid.) containing 5% DMSO. The filter on the bottom of each acceptor well is filled with 300 µL of 100 mM PBS buffer (2.6 g KH2PO4 and 18.5 g K2HPO4.3H2O are dissolved in about 1000 mL of ultra-pure water, mixed thoroughly. The pH was adjusted to 7.40 ± 0.05, using either 1 M sodium hydroxide or 1 M hydrochloric acid.). The resulting sandwich is incubated at room temperature under constant shaking (300 rpm) for 4 hours. The sandwich is then disassembled. Before incubation, spike 20 µL dosing solution and mix with 250 µL PBS and 130 µL quench solution (acetonitrile) as T0 sample. After incubation, collect 270 µL solutions from acceptor chamber, followed by the addition of 130 µL acetonitrile. Collect 20 µL solution from donor chamber and add 250 µL PBS and 130 µL acetonitrile. The concentration of compound in all samples are determined by LC-MS/MS and the equations for determining the permeability (Pe, 10^-6 cm/s ) are as follows.
VD is the volume of the donor well; VR is the volume of the acceptor well; Area is the active surface area of membrane; Time is the incubation time (14,400 s in this assay); CR and CD are the concentrations of compound in acceptor and donor solutions, respectively, at the completion of the assay; C0 is the concentration of compound in donor solution before incubation.
The main readout of the PAMPA assay is the permeability value Pe expressed in 10^-6 cm/s. Secondary readouts determined are the amounts of compound in the donor and acceptor compartments as well as compound retention in the membrane. Depending on the permeation rate and the membrane retention, compounds are classified as “low” (Pe < 0.2 and membrane retention <20%) or “medium & high” (Pe >= 0.2; or Pe < 0.2 and membrane retention >= 20%). Each sample is measured in triplicate; the standard deviation is determined for the permeation constant Pe.

Membrane Retention (PAMPA, pH 7.40, 4 hours): 37.320% | Papp at 4 h (PAMPA, pH 7.4, pH 7.40, room temperature, 4 hours, read-out: PAMPA Pe): 0.87 ×10⁻⁶ cm/s
Structure (SMILES): CCc1nc(N2CCN3CCN(c4cnc(N5CC6(CNCCO6)C5)nc4)CC3C2)ccc1-c1cc(C)c(=O)n(C)c1 (stereo not drawn) [Example 19, 5-[2-ethyl-6-[2-[2-(5-oxa-2,8-diazaspiro[3.5]nonan-2-yl)pyrimidin-5-yl]-3,4,6,7,9,9a-hexahydro-1H-pyrazino[1,2-a]pyrazin-8-yl]-3-pyridyl]-1,3-dimethyl-pyridin-2-one]
PAMPA category (class from Pe and membrane retention): medium & high (“medium & high” (Pe >= 0.2; or Pe < 0.2 and membrane retention >= 20%))
